Reference: US9278962B2 (Cytokinetics, Inc., priority 2011, dated 2016)

These compounds were tested on rabbit skeletal myofibrils (approximately 90% fast fibers) (assay: Activation of fast skeletal myofibrils (PUMA coupled-enzyme ATPase assay, AC1.4)). Conditions: Table 2; concentration at which the compound increased enzymatic activity by 40%; calcium at pCa25.
Format: biochemical
Method: Rabbit skeletal myofibrils were prepared based upon the method of Herrmann et al. (Biochem. 32(28):7255-7263(1993). Myofibrils were prepared from rabbit psoas muscle purchased from Pel-Freez Biologicals (Arkansas) within 2 days of ordering, stored on ice. Minced muscle was homogenized in 10 volumes of ice-cold “standard” buffer (50 mM Tris, pH 7.4, 0.1 M potassium acetate, 5 mM KCl, 2 mM DTT, 0.2 mM PMSF, 10 μM leupeptin, 5 μM pepstatin, and 0.5 mM sodium azide) containing 5 mM EDTA and 0.5% Triton X-100 using an Omni-Macro homogenizer. Myofibrils were recovered by low speed centrifugation (3000 rpm for 10 minutes) and washed 2 times in the Triton X-100 containing buffer to ensure removal of cellular membrane. Following the Triton washes, myofibrils were washed 3 times in “standard” buffer containing 2 mM magnesium acetate. A final wash in assay buffer (12 mM PIPES, pH 6.8, 60 mM KCl, 1 mM DTT) was performed and brought to 10% sucrose for flash freezing in liquid nitrogen and storage at −80° C.
Fast fiber activators were identified by measuring the enzymatic activity of muscle myofibril preparations using the proprietary PUMA™ (see, e.g., U.S. Pat. Nos. 6,410,254, 6,743,599, 7,202,051, and 7,378,254) assay system. Myofibril preparations consisted of rabbit skeletal muscle (approximately 90% fast fibers) that had been mechanically homogenized and washed with a detergent (triton X-100) to remove cellular membranes. This preparation retained all of the sarcomeric components in a native conformation and the enzymatic activity was still regulated by calcium. Compounds were tested using a myofibril suspension and a level of calcium sufficient to increase enzymatic activity of the myofibrils to 25% of their maximal rate (termed pCa25). Enzymatic activity was tracked via a pyruvate kinase and lactate dehydrogenase-coupled enzyme system. This assay regenerates myosin-produced ADP into ATP by oxidizing NADH, producing an absorbance change at 340 nm. The buffering system was 12 mM Pipes, 2 mM MgCl2, 1 mM DTT at pH 6.8 (PM12 buffer).
Using procedures similar to those described herein, utilizing reagents and intermediates commercially available (e.g., Sigma-Aldrich) or readily synthesized by one of skill in the art, the compounds in Table 2, Table 3, Table 4 and Table 5 were synthesized, characterized and tested. AC1.4 values were determined according to the procedure described in Example 6, and the reported median AC1.4 values are as follows: A=<1 uM; B=1-10 uM; C=10-20 uM; D=>20 uM.

| Structure (SMILES) | Mean AC1.4 |
| --- | --- |
| CC(C)(CNc1nc(-c2ccc(F)c(C(N)=O)c2)ns1)c1ccc(F)cc1 [2-fluoro-5-(5-{[2-(4-fluorophenyl)-2-methylpropyl]amino}(1,2,4-thiadiazol-3-yl))benzamide] | A (A=<1 uM) |
| CC(C)(CNc1nc(-c2ccc(F)c(C#N)c2)ns1)c1ccc(F)cc1 [2-fluoro-5-(5-{[2-(4-fluorophenyl)-2-methylpropyl]amino}(1,2,4-thiadiazol-3-yl))benzenecarbonitrile] | B (B=1-10 uM) |
| CN(CCO)Cc1nsc(NCC(C)(C)c2ccc(F)cc2)n1 [2-{[(5-{[2-(4-fluorophenyl)-2-methylpropyl]amino}(1,2,4-thiadiazol-3-yl))methyl]methylamino}ethan-1-ol] | D (D=>20 uM) |
| CC(C)(CNc1nc(CNCCO)ns1)c1ccc(F)cc1 [2-{[(5-{[2-(4-fluorophenyl)-2-methylpropyl]amino}-1,2,4-thiadiazol-3-yl)methyl]amino}ethan-1-ol] | D (D=>20 uM) |
| NC(=O)c1cccc(-c2nc(NCCCc3ccccc3)ns2)c1 [3-(3-(3-phenylpropylamino)-1,2,4-thiadiazol-5-yl)benzamide] | D (D=>20 uM) |
| NC(=O)c1cccc(-c2nc(NCCc3ccccc3)ns2)c1 [3-(3-(phenethylamino)-1,2,4-thiadiazol-5-yl)benzamide] | D (D=>20 uM) |
| CC(C)(CNc1nsc(-c2cccc(C(N)=O)c2)n1)c1ccc(F)cc1 [3-(3-{[2-(4-Fluorophenyl)-2-methylpropyl]amino}-1,2,4-thiadiazol-5-yl)benzamide] | B (B=1-10 uM) |
| CC(Nc1nc(-c2cccc(C(N)=O)c2)ns1)C(=O)c1ccc(F)cc1 (centres unmarked) [3-(5-{[2-(4-fluorophenyl)-1-methyl-2-oxoethyl]amino}-1,2,4-thiadiazol-3-yl)benzamide] | C (C=10-20 uM) |
| NC(=O)c1cccc(-c2nsc(NCC(O)c3ccc(F)cc3)n2)c1 (centres unmarked) [3-(5-{[2-(4-fluorophenyl)-2-hydroxyethyl]amino}-1,2,4-thiadiazol-3-yl)benzamide] | D (D=>20 uM) |
| CC(C)(CNc1nc(CCC(=O)N2CCCC(O)C2)ns1)c1ccc(F)cc1 (centres unmarked) [3-(5-{[2-(4-fluorophenyl)-2-methylpropyl]amino}(1,2,4-thiadiazol-3-yl))-1-(3-hydroxypiperidyl)propan-1-one] | D (D=>20 uM) |
| CC(C)(CNc1nc(CCC(=O)N2CCC(O)CC2)ns1)c1ccc(F)cc1 [3-(5-{[2-(4-fluorophenyl)-2-methylpropyl]amino}(1,2,4-thiadiazol-3-yl))-1-(4-hydroxypiperidyl)propan-1-one] | D (D=>20 uM) |
| CC(C)(CNc1nc(CCC(=O)N2CCCC2)ns1)c1ccc(F)cc1 [3-(5-{[2-(4-fluorophenyl)-2-methylpropyl]amino}(1,2,4-thiadiazol-3-yl))-1-pyrrolidinylpropan-1-one] | C (C=10-20 uM) |
| CC(C)(CNc1nc(CCC(=O)NCCO)ns1)c1ccc(F)cc1 [3-(5-{[2-(4-fluorophenyl)-2-methylpropyl]amino}(1,2,4-thiadiazol-3-yl))-N-(2-hydroxyethyl)propanamide] | C (C=10-20 uM) |
| CC(C)(CNc1nc(-c2cccc(C(N)=O)c2)ns1)c1ccc(F)cc1 [3-(5-{[2-(4-fluorophenyl)-2-methylpropyl]amino}-1,2,4-thiadiazol-3-yl)benzamide] | A (A=<1 uM) |
| CC(C)(CNc1nc(-c2cccc(C#N)c2)ns1)c1ccc(F)cc1 [3-(5-{[2-(4-fluorophenyl)-2-methylpropyl]amino}-1,2,4-thiadiazol-3-yl)benzenecarbonitrile] | B (B=1-10 uM) |
| CC(C)(CNc1nc(-c2cccc(O)c2)ns1)c1ccc(F)cc1 [3-(5-{[2-(4-fluorophenyl)-2-methylpropyl]amino}-1,2,4-thiadiazol-3-yl)phenol] | A (A=<1 uM) |
| CC(C)(CNc1nc(CCC(N)=O)ns1)c1ccc(F)cc1 [3-(5-{[2-(4-fluorophenyl)-2-methylpropyl]amino}-1,2,4-thiadiazol-3-yl)propanamide] | C (C=10-20 uM) |
| CC(C)(CNc1nc(CC(O)CO)ns1)c1ccc(F)cc1 (centres unmarked) [3-(5-{[2-(4-fluorophenyl)-2-methylpropyl]amino}-1,2,4-thiadiazol-3-yl)propane-1,2-diol] | B (B=1-10 uM) |
| CC(C)(CNc1nc(CCC(=O)O)ns1)c1ccc(F)cc1 [3-(5-{[2-(4-fluorophenyl)-2-methylpropyl]amino}-1,2,4-thiadiazol-3-yl)propanoic acid] | D (D=>20 uM) |
| NC(=O)c1cccc(-c2nsc(NCCc3ccc(F)cc3)n2)c1 [3-(5-{[2-(4-fluorophenyl)ethyl]amino}-1,2,4-thiadiazol-3-yl)benzamide] | B (B=1-10 uM) |
| N#Cc1cccc(-c2nsc(NCCc3ccc(F)cc3)n2)c1 [3-(5-{[2-(4-fluorophenyl)ethyl]amino}-1,2,4-thiadiazol-3-yl)benzenecarbonitrile] | D (D=>20 uM) |
| CN1CCN(C(=O)CNc2nc(-c3cccc(C(N)=O)c3)ns2)CC1 [3-(5-{[2-(4-methylpiperazinyl)-2-oxoethyl]amino}-1,2,4-thiadiazol-3-yl)benzamide] | D (D=>20 uM) |
| CC(C)(CNc1nc(-c2cccc(C(N)=O)c2)ns1)c1ccc(F)cn1 [3-(5-{[2-(5-fluoro(2-pyridyl))-2-methylpropyl]amino}-1,2,4-thiadiazol-3-yl)benzamide] | B (B=1-10 uM) |
| C[C@H](CNc1nc(-c2cccc(C(N)=O)c2)ns1)c1ccc(F)cc1 [3-(5-{[(2S)-2-(4-fluorophenyl)propyl]amino}-1,2,4-thiadiazol-3-yl)benzamide] | A (A=<1 uM) |
| CC(C)(CNc1nc(Cl)ns1)c1ccc(F)cc1 [3-Chloro-N-(2-(4-fluorophenyl)-2-methylpropyl)-1,2,4-thiadiazol-5-amine] | B (B=1-10 uM) |
| CN(C)c1nc(-c2cccc(C(N)=O)c2)ns1 [3-[5-(dimethylamino)-1,2,4-thiadiazol-3-yl]benzamide] | D (D=>20 uM) |
| CC(=O)N1CCC(CNc2nc(-c3cccc(C(N)=O)c3)ns2)(c2ccc(F)cc2)CC1 [3-[5-({[1-acetyl-4-(4-fluorophenyl)-4-piperidyl]methyl}amino)-1,2,4-thiadiazol-3-yl]benzamide] | D (D=>20 uM) |

Same assay, conditions: Table 3; concentration at which the compound increased enzymatic activity by 40%; calcium at pCa25

| Structure (SMILES) | Mean AC1.4 |
| --- | --- |
| NC(=O)c1cccc(-c2nnc(NCC3(c4ncccc4F)CCC3)s2)c1 [3-(5-((1-(3-fluoropyridin-2-yl)cyclobutyl)methylamino)-1,3,4-thiadiazol-2-yl)benzamide] | A (A=<1 uM) |
| N#Cc1cccc(-c2nnc(NCC3(c4ncccc4F)CCC3)s2)c1 [3-(5-((1-(3-fluoropyridin-2-yl)cyclobutyl)methylamino)-1,3,4-thiadiazol-2-yl)benzonitrile] | B (B=1-10 uM) |
| Cc1ccc(C(N)=O)cc1-c1nnc(NC[C@]2(c3ncccc3F)C[C@H](F)C2)s1 [3-(5-((3-fluoro-1-(3-fluoropyridin-2-yl)cyclobutyl)methylamino)-1,3,4-thiadiazol-2-yl)-4-methylbenzamide] | A (A=<1 uM) |
| Cc1ccc(C#N)cc1-c1nnc(NC[C@]2(c3ncccc3F)C[C@H](F)C2)s1 [3-(5-((3-fluoro-1-(3-fluoropyridin-2-yl)cyclobutyl)methylamino)-1,3,4-thiadiazol-2-yl)-4-methylbenzonitrile] | B (B=1-10 uM) |
| N#Cc1cccc(-c2nnc(NC[C@]3(c4ncccc4F)C[C@@H](F)C3)s2)c1 [3-(5-(((cis)3-fluoro-1-(3-fluoropyridin-2-yl)cyclobutyl)methylamino)-1,3,4-thiadiazol-2-yl)benzonitrile] | B (B=1-10 uM) |
| NC(=O)c1cccc(-c2nnc(NC[C@]3(c4ncccc4F)C[C@@H](F)C3)s2)c1 [3-(5-(((cis)-3-fluoro-1-(3-fluoropyridin-2-yl)cyclobutyl)methylamino)-1,3,4-thiadiazol-2-yl)benzamide] | B (B=1-10 uM) |
| N#Cc1cccc(-c2nnc(NC[C@]3(c4ncccc4F)C[C@H](F)C3)s2)c1 [3-(5-(((trans)3-fluoro-1-(3-fluoropyridin-2-yl)cyclobutyl)methylamino)-1,3,4-thiadiazol-2-yl)benzonitrile] | B (B=1-10 uM) |
| NC(=O)c1cccc(-c2nnc(NC[C@]3(c4ncccc4F)C[C@H](F)C3)s2)c1 [3-(5-(((trans)-3-fluoro-1-(3-fluoropyridin-2-yl)cyclobutyl)methylamino)-1,3,4-thiadiazol-2-yl)benzamide] | B (B=1-10 uM) |
